“Also recorded” adds a separate entry of the source.

Assay [1] has as its system Th17 cells differentiated from splenocytes isolated from mouse. Put plainly: Analysis of effect under Th17 differentiation conditions (flow cytometry of IL-17A and Foxp3). Type of assay: cell-based. The following applies: sample 2 μM; for effect of suppressing immune response (decrease of IL-17 and increase of Foxp3): flow cytometry 4 days later, comparator as named in the value (Th17/PBS control, K1, AP-K2); for effect of suppressing immune response compared to the dNP2-ctCTLA-4 group: versus dNP2-ctCTLA-4 positive control. The text has this: Th17 cells are a subset of CD4 T cells. The Th17 cells are known to secrete a cytokine known as IL-17 and cause inflammation. This is the major cause of autoimmune disease. And, Treg cells (regulatory T cells) are known to suppress and regulate inflammation by expressing the transcription factor called Foxp3. Accordingly, since it is thought that the effect of preventing and treating autoimmune disease may be achieved by regulating inflammation by inhibiting Th17 cells (IL-17) and increasing Treg (Foxp3) cells, the effect of the peptides of the present disclosure was investigated.
Undifferentiated CD4 T cells (naive CD4 T cells) were isolated from splenocytes of 6- to 8-week-old C57BL/6 mice using a mouse undifferentiated CD4+ T cell (naive CD4 T cell) isolation kit (Miltenyi Biotec, Auburn, CA, USA) according to the manufacturer's protocols. For RNAseq, the undifferentiated CD4 T cells (naive CD4 T cells) from the Foxp3-GFP mice were purified, differentiated into Th17 cells and sorted into Foxp3^+ and Foxp3^− populations using a cell sorter (FACS Aria cell sorter BD Biosciences, Franklin Lakes, NJ, USA). The purified undifferentiated CD4 T cells (naive CD4 T cells) were activated with plate-bound anti-CD3 (2 or 5 μg/mL, 553057; BD Pharmingen, La Jolla, CA) and anti-CD28 (2 or 5 μg/mL, 553294; BD Pharmingen, La Jolla, CA) antibodies and differentiated by treating with the following cytokine cocktails in a 96-well plate for 3 or 4 days: Th0; recombinant human TGF-β(R&D Systems) 0.25 ng/mL. Th1; anti-IL-4 (11B11; 16-7041-85; eBioscience) 5 μg/mL, IL-2 (212-12; Peprotech, Rocky Hill, NJ) 50 U/mL, recombinant murine IL-12 (212-12; Peprotech) 2 ng/mL, recombinant human TGF-β (R&D Systems) for Th1 0.25 ng/mL. Th17; anti-IFN-γ (XMG1.2; 16-7311-85; eBioscience) 5 μg/mL, anti-IL-4 (11B11; 16-7041-85; eBioscience) 5 μg/mL, recombinant murine TGF-β (7666-MB, R&D Systems, Minneapolis, MN) 2 ng/mL, IL-6 (216-16; Peprotech) 30 ng/mL, IL-23 (1887-ML-101; R&D Systems) 20 ng/mL, IL-1β (401-ML-010; R&D Systems) 20 ng/mL, and IL-2 (Peprotech) 50 U/mL. Treg; IL-2 (Peprotech) 50 U/mL and TGF-β (R&D Systems) 0.5 ng/mL.
The cells were cotreated with the cytokine cocktails and the samples (2 μM). 4 days later, they were analyzed by flow cytometry using IL-17 and Foxp3 fluorescent antibodies. In some experiments, 5 μM PKC-η pseudosubstrate inhibitor (sc-3096; Santa Cruz) or 5 μM ERK inhibitor (UO126, 662005; Sigma) were also added.
For flow cytometric analysis of living cells only, dead cells were excluded using the Zombie Aqua™ fixable viability kit (Biolegend) before staining with antibodies at room temperature for 10 minutes. After washing, surface proteins of the differentiated Th1, Th17 and Treg cells were stained with monoclonal antibodies at 4° C. for 15 minutes. To determine intracellular cytokine levels, the cells were restimulated with a cell stimulation cocktail (plus protein transport inhibitors) (ThermoFisher) at 37° C. for 4 hours and then stained with surface marker antibodies. The cells were then fixed, permeabilized using a Foxp3/transcription factor staining buffer set (eBioscience) and stained with anti-mouse IFN-γ, anti-mouse IL-17 and anti-mouse Foxp3. The cells were analyzed using a FACS Canto II flow cytometer and the FlowJo software version 10.7.
Background: In flow cytometry, cells or beads pass a laser one at a time.

For assay [2], the system named is multiple sclerosis animal model. The assay is described as follows: Analysis of efficiency in multiple sclerosis (MS) animal model (MOG35-55/CFA + PTX). Format: in vivo, C57BL/6 mice. The note with it: comparator as named in the value; for clinical symptoms (clinical score): 100 μg (5 mg/kg) intraperitoneally once a day from day 7 after PTX; for number of infiltrated lymphocytes in the spinal cord / number of Treg cells (spinal cord): 100 μg intraperitoneally once a day from day 7. On the procedure:
8-week-old female C57BL/6 mice were purchased from Orient Bio (Daejeon, Korea). All animal experiments were conducted in compliance with the animal experiment operation regulations of the Institutional Animal Care and Use Committee of Hanyang University. The mice were acclimatized for 2 weeks before the experiment. The mice were raised in a breeding room maintained at temperature 22±2° C. and 40-60% humidity with free access to feed. The light and dark cycles were adjusted at 12-hour intervals. Multiple sclerosis was induced by subcutaneous immunization using a MOG35-55/CFA emulsion PTX kit (Hooke Labs, Lawrence, MA, USA) according to the manufacturer's protocol. The mice were anesthetized with isoflurane and MOG35-55/CFA was subcutaneously injected bilaterally, followed by intraperitoneal injection of PTX (pertussis toxin) 2 hours and 24 hours later. The mice were randomly assigned to different groups after MOG immunization. Because paralysis due to immune response begins on day 7 after the injection of PTX, 100 μg (5 mg/kg) of the samples according to the present disclosure were intraperitoneally injected to the groups once a day from day 7. Each group was monitored every day after inducing multiple sclerosis and clinical symptoms were recorded. The clinical symptoms were evaluated based on the scoring system described in Table 2. The higher clinical scores indicate severer symptoms. The mice were euthanized at the end of the experiments and lymphocytes were isolated from the spinal cords. The isolated spinal cords were treated at 37° C. with 1 mg/mL of DNase 1 (10104159001; Sigma-Aldrich) and 1 mg/mL of collagenase D (11088866001; Sigma-Aldrich) and incubated at 80 rpm on a shaker for 40 minutes. After the enzyme treatment, 500 mM EDTA was added and lymphocytes were isolated by Percoll (GE Healthcare, Little Chalfont, UK) density-gradient centrifugation. The isolated infiltrated lymphocytes were restimulated with a cell stimulation cocktail (plus protein transport inhibitors) (ThermoFisher) at 37° C. for 4 hours and stained with anti-mouse CD4. The cells were fixed, permeabilized using a Foxp3/transcription factor staining buffer set (eBioscience) and stained with anti-mouse IFN-γ, anti-mouse IL-17 or anti-mouse Foxp3. The cells were analyzed using a FACS Canto flow cytometer and the FlowJo software version 10.7.1. For histological analysis, paraffin blocks of the spinal cord tissues were deparaffinized and treated with luxol fast blue. For combination staining, hematoxylin and eosin were used (Dako). The cells infiltrated in the white matter region of the spinal cord tissues were counted using the Image J software version 2.0.0. The increased number of Th1 and Th17 immune cells in the spinal cord means more severe multiple sclerosis, and the increased number of Treg cells means that the function of preventing or treating autoimmune disease such as multiple sclerosis is improved as the tolerance to self-antigens is maintained and the excessive response by the immune system is prevented.

On to SPLTTGV (S) [motif of CTLA4], for which, in assay [1], the “effect of suppressing immune response (decrease of IL-17 and increase of Foxp3)” value is reported as “did not show significant difference from the dNP2 group or the Th17 group”.

For the molecule “KIKKVKKKGRKGSKIKKVKKKGRKGGKMLKKRSPLTTGVYVKM (dNP2-KSY) [deleted variant of dNP2-ctCTLA-4]”, in assay [2], the “clinical symptoms (clinical score)” value is “significantly superior in terms of clinical symptoms as compared to the TAT-ctCTLA-4 group and the PBS group”; the “number of infiltrated lymphocytes in the spinal cord” value (“number of infiltrated lymphocytes” below) is “significantly smaller number of infiltrated lymphocytes in the spinal cord as compared to the TAT-ctCTLA-4 group and the PBS group”.

Regarding KMLKKRSKMLKKRSKMLKKRS (K3) [Example K3], the “effect of suppressing immune response compared to the dNP2-ctCTLA-4 group” value in assay [1] (4 days) was “comparable effect”. Further, the “effect of suppressing immune response (decrease of IL-17 and increase of Foxp3)” value in assay [1] is “significantly better effect of suppressing immune response than the PBS (control group); also recorded: significantly superior effect of suppressing immune response as compared to the PBS group”. The “effect of suppressing immune response (decrease of IL-17 and increase of Foxp3)” value in assay [1] (listed as Example 4) was “the activity of inhibiting immune cells is significantly superior”. In addition, in assay [2], the “clinical symptoms (clinical score)” value is on record as “significantly remarkable superior result in clinical symptoms than the K1 group”, the “number of Treg cells (spinal cord)” value is reported as “larger number of Treg cells than the K1 group” and the “number of infiltrated lymphocytes” value is recorded as “significantly number of infiltrated lymphocytes in the spinal cord as compared to the K1 group”.

Consider RRRWCKRRRGGKALKKRSKALKKRS (AP-K2 MA), for which the “order of the reduction of IL-17 and the increase of Foxp3 among AP-K2 variants” value in assay [1] (4 days) was “in the order of the AP-K2 SA group, the AP-K2 2KA group, the AP-K2 3KA group and the AP-K2 MA group”.

Regarding RRRWCKRRRGGKMLKKRAKMLKKRA (AP-K2 SA), the “order of the reduction of IL-17 and the increase of Foxp3 among AP-K2 variants” value in assay [1] (4 days) is “in the order of the AP-K2 SA group, the AP-K2 2KA group, the AP-K2 3KA group and the AP-K2 MA group”.

As for “KMLKKRSKMLKKRS (K2) [Example K2, two K motifs of CTLA4 linked, no linker]”, in assay [1] (4 days), the “effect of suppressing immune response compared to the dNP2-ctCTLA-4 group” value was “comparable effect”. Further, the “effect of suppressing immune response (decrease of IL-17 and increase of Foxp3)” value in assay [1] is “significantly better effect of suppressing immune response than the PBS (control group); also recorded: significantly superior effect of suppressing immune response as compared to the PBS group”. Also, in assay [2], the “clinical symptoms (clinical score)” value was “significantly improved result for clinical symptoms as compared to the PBS group” and the “number of infiltrated lymphocytes” value is given as “significantly smaller number of infiltrated lymphocytes in the spinal cord than the PBS (control group)”.

In the case of RRRWCKRRRGGKMLKKASKMLKKAS (AP-K2 RA), the “effect of suppressing immune response (decrease of IL-17 and increase of Foxp3)” value in assay [1] is “decreased significantly”.

With “RRRWCKRRRGGKMLKKRSKMLKKRSKMLKKRS (AP-K3)”, the “effect of inhibiting the IL-17 cytokine compared to the dNP2-ctCTLA-4 group” value in assay [1] (4 days) is “remarkably superior effect of inhibiting the IL-17 cytokine as compared to the dNP2-ctCTLA-4 group”. In assay [1], the “effect of suppressing immune response (decrease of IL-17 and increase of Foxp3)” value was “significantly better effect of suppressing immune response than the PBS (control group)”. Moreover, in assay [2], the “clinical symptoms (clinical score)” value is “significantly improved results for clinical symptoms as compared to the PBS (control group)”; the “number of Treg cells (spinal cord)” value is given as “significantly number of regulatory T cells (Treg) as compared to the PBS (control group)”; the “number of infiltrated lymphocytes” value is “significantly smaller number of infiltrated lymphocytes in the spinal cord as compared to the PBS (control group), dNP2 and AP groups”.

On to RRRWCKRRRGGKMLKARSKMLKARS (AP-K2 3KA), for which, in assay [1] (4 days), the “order of the reduction of IL-17 and the increase of Foxp3 among AP-K2 variants” value was “in the order of the AP-K2 SA group, the AP-K2 2KA group, the AP-K2 3KA group and the AP-K2 MA group”.

Turning to “YFIPIN (Y2) [Example Y2, motif of CTLA4]”, the “effect of suppressing immune response (decrease of IL-17 and increase of Foxp3)” value in assay [1] was “did not show significant difference from the dNP2 group or the Th17 group”.

For the molecule RRRWCKRRRGGAMLKKRSAMLKKRS (AP-K2 1KA), the “effect of suppressing immune response (decrease of IL-17 and increase of Foxp3)” value in assay [1] is “decreased significantly”.

Take PPTEPECE (P) [motif of CTLA4]: in assay [1], the “effect of suppressing immune response (decrease of IL-17 and increase of Foxp3)” value is “did not show significant difference from the dNP2 group or the Th17 group”.

Consider YVKM (Y1) [Example Y1, motif of CTLA4], for which, in assay [1], the “effect of suppressing immune response (decrease of IL-17 and increase of Foxp3)” value was “did not show significant difference from the dNP2 group or the Th17 group”.

As to RRRWCKRRRGGKMLAKRSKMLAKRS (AP-K2 2KA), the “order of the reduction of IL-17 and the increase of Foxp3 among AP-K2 variants” value in assay [1] (4 days) is “in the order of the AP-K2 SA group, the AP-K2 2KA group, the AP-K2 3KA group and the AP-K2 MA group”.

In the case of RRRWCKRRRGGKMAKKRSKMAKKRS (AP-K2 LA), the “effect of suppressing immune response (decrease of IL-17 and increase of Foxp3)” value in assay [1] is “slightly decreased function of AP-L2”.

Consider “RRRWCKRRRGGAMLAAASAMLAAAS (AP-K2 KA) [negative control, lysine and arginine residues of AP-K2 replaced with alanine]”, for which the “effect of suppressing immune response (decrease of IL-17 and increase of Foxp3)” value in assay [1] is “decreased slightly”.

B1: KIKKVKKKGRKGSKIKKVKKKGRKGGKMLKKRSPLTTGVYVKMAATEAECEKQFQPYFIPIN (peptide)
chain: KIKKVKKKGRKGSKIKKVKKKGRKGGKMLKKRSPLTTGVYVKMAATEAECEKQFQPYFIPIN
notes: dNP2-ctCTLA-4 variant
Consider B1, for which, in assay [2], the “clinical symptoms (clinical score)” value is listed as “significantly lower clinical symptoms as compared to the PBS group” and the “number of infiltrated lymphocytes” value is given as “significantly larger number of infiltrated lymphocytes in the spinal cord as compared to the PBS group”.
